Laboratory results taken from patent EP4613273A1, “TREATMENT OF BONE LOSS” (priority 2024, dated 2025).
Where a name gives a salt, the structure may show the parent alone. Read-outs that look alike come from different tables or passages of the source.

Key:
Format in all cases: in vivo
[1] = Plasma pharmacokinetic of MIV-701 after single and repeated oral administration of MIV-701 besylate salt in healthy beagle dogs; conditions: for Cmax at 312 h / Tmax at 312 h / AUC(0-inf) at 312 h / AUC(0-t) at 312 h / half-life at 312 h / Cmax at 0 h / Tmax at 0 h / AUC(0-inf) / AUC(0-t) / half-life: dog; for AUC(0-inf) at 312 h / AUC(0-inf): read-out: AUC(0-infini) (converted); for AUC(0-t) at 312 h / AUC(0-t): read-out: AUC(0-tfinal) (converted); for half-life at 312 h / half-life: read-out: T1/2 elimination (converted)
Description: (§1) Compound Ib besylate salt (referred to as MIV-701 besylate salt) was administered once daily for 14 days to 3 healthy beagle dogs at three different doses: 1 mg/kg, 10 mg/kg and 100 mg/kg.
(§2) The doses were consecutively administered for 14 days with a >5-day washout period between two dose levels.
(§3) Each treatment period can be resumed as follows: • J0 (T+24h): first Compound Ib besylate salt administration, withdrawal of blood samples for pharmacokinetic and plasma CTX-1 assessment (pre-dose and 0.5h, 1h, 2h, 4h, 8h and 24h after drug administration), pre-dose blood samples for hematology and clinical biochemistry (baseline values for safety assessment). • J1 to J12: pre-dose blood samples • J13: last Compound Ib besylate salt administration, withdrawal of plasma samples for pharmacokinetic and plasma CTX-1 assessment (pre-dose and 0.5h, 1h, 2h, 4h, 8h and 24h after drug administration), pre-dose sampling for hematology and clinical biochemistry (baseline values for safety assessment). • J15-J≥19: washout period.
(§4) After centrifugation of blood samples plasma aliquots were stored at -20°C. After thawing on ice, 30 µL of plasma were transferred into 1.5 ml microtube containing 270 µL acetonitrile. Microtubes were then vigorously stirred and then centrifuged (12000 rpm, 10 min, 4°C) and the supernatant was transferred in Matrix tube for LC-MS/MS analysis. Calibration curve (9 points, 3 to 30 000 nM) was obtained by spiking plasma samples from naive dogs with appropriate quantities of Compound Ib.
(§5) Equipment: LC-MS/MS Acquity I Class-Wevo TQD (Waters®): - Acquity I Class ∘ Column: Waters® Acquity BEH C8, 50*2.1mm, 1.7 µm (40°C) ∘ Mobile phase: • ▪ A: Ammonium Formate 5mM, pH=3.8 • ▪ B: Ammonimuformate 5 mM in CH3CN 5% aqueous, pH=3.8 ∘ Injection volume: 1 µL ∘ Speed: 600 µL/min ∘ Gradient: […]
(§6) - Xevo TQD ∘ Source temperature: 150°C ∘ Desolvatation temperature: 600°C ∘ Cone gaz speed: 50L/h ∘ Desolvatation gaz speed: 1200L/h - Analytes MS characteristics
Terminal elimination half-life (t1/2) was calculated according to the following formula: T1/2 elimination = ln(2)/kel [formula] kel= slope of ln(C)=f(temps) calculated on the last points of the curves (elimination phase)/ MIV-701 exposure (Area Under the Curve; AUCt) was calculated according to trapezoidal method according to the following formula: AUCt−>inf = [C]t /kel [formula]

[2] = Safety of repeated oral administration in healthy cats
Description: (§7) MIV-701 besylate salt was administered once daily for 14 days to 4 healthy cats at three increasing doses: 2 mg/kg, 10 mg/kg and 50 mg/kg.
(§8) The three doses were consecutively administered for 14 days with a >5-day washout period between two dose levels.
(§9) Each treatment period can be resumed as follows: • J0 (T+24h): first administration, withdrawal of blood samples for pharmacokinetic and plasma CTX-1 assessment (pre-dose and 0.5h, 1h, 2h, 4h, 8h and 24h after first drug administration), pre-dose blood samples for hematology and clinical biochemistry (baseline values for safety assessment). • J5 ([…]) and J8: pre-dose blood samples. • J13: last administration, withdrawal of plasma samples for pharmacokinetic and plasma CTX-1 assessment (pre-dose and 0.5h, 1h, 2h, 4h, 8h and 24h after last drug administration), pre-dose sampling for hematology and clinical biochemistry (baseline values for safety assessment). • J15 to J≥19: washout period.

[3] = MIV-701/MIV-06404 plasma exposure ratio in cat; conditions: for MIV-701/MIV-06404 exposure ratio: D13 (repeated); for MIV-701/MIV-06404 ratio: single oral administration (D0), exposure ratio
Description: as §7, §9
After centrifugation of blood samples plasma aliquots were stored at -20°C._After thawing on ice, 30 µL of plasma were transferred into 1.5 ml microtube containing 270 µL acetonitrile. Microtubes were then vigorously stirred and then centrifuged (12000 rpm, 10 min, 4°C) and the supernatant was transferred in Matrix tube for LC-MS/MS analysis.
as §5
- Xevo TQD • ∘ Source temperature: 150°C • ∘ Desolvatation temperature: 600°C • ∘ Cone gaz speed: 50L/h • ∘ Desolvatation gaz speed: 1200L/h - Analytes MS characteristics

[4] = MIV-701/MIV-06404 plasma exposure ratio in dog; conditions: single oral administration, exposure ratio (peak area)
Description: as §1, §3, §4, §5, §6

[5] = system: CTX-1; assay: Plasma CTX-1 (bone resorption marker) in healthy cats; conditions: for pre-dose plasma CTX-1 during repeated administration: once-a-day oral 2 and 10 mg/kg, 14 days
Description: as §7, §8, §9

[6] = Safety of 14-day repeated oral administration in healthy beagle dogs
Description: as §1, §2, §3

[7] = plasma MIV-701, oral 1 mg/kg once daily, Day 13 (repeated)
[8] = plasma MIV-701, oral 1 mg/kg, Day 0 (single)
[9] = plasma MIV-701, oral 10 mg/kg once daily, Day 13 (repeated)
[10] = plasma MIV-701, oral 10 mg/kg, Day 0 (single)
[11] = plasma MIV-701, oral 100 mg/kg once daily, Day 13 (repeated)
[12] = plasma MIV-701, oral 100 mg/kg, Day 0 (single)

Compound: CC(C)C[C@H](NC(=O)c1ccc(-c2csc(N3CCN(C)CC3)n2)cc1)C(=O)N1C[C@H](F)[C@H]2OCC(O)(O)[C@H]21 [MIV-701 besylate salt, N-[(S)-1-((3aS,6S,6aS)-6-Fluoro-S-oxo-hexahydro-furo[3,2-b]pyrrole-4-carbony)-3-methyl-butyl]-4-[2-(4-methyl-piperazin-1-yl)-thiazol-4-yl]-benzamide benzenesulphonate]
- plasma accumulation of MIV-701 (Cmax, AUCs D13 vs D0) ([1]; 14-day repeated oral administration, three doses): did not show plasma accumulation
- Cmax at 312 h [1, 7]: 6.6 nM
- Tmax at 312 h [1, 7]: 2 h
- AUC(0-inf) at 312 h [1, 7]: 0.083 µM·h
- AUC(0-t) at 312 h [1, 7]: 0.036 µM·h
- half-life at 312 h [1, 7]: 8.6 h
- Cmax at 0 h [1, 8]: 20 nM
- Tmax at 0 h [1, 8]: 0.5 h
- AUC(0-inf) [1, 8]: 0.0488 µM·h
- AUC(0-t) [1, 8]: 0.0429 µM·h
- half-life [1, 8]: 2.9 h
- Cmax at 312 h [1, 9]: 130 nM
- Tmax at 312 h [1, 9]: 4 h
- AUC(0-inf) at 312 h [1, 9]: 1.91 µM·h
- AUC(0-t) at 312 h [1, 9]: 1.84 µM·h
- half-life at 312 h [1, 9]: 4.9 h
- Cmax at 0 h [1, 10]: 139 nM
- Tmax at 0 h [1, 10]: 1 h
- AUC(0-inf) [1, 10]: 1.38 µM·h
- AUC(0-t) [1, 10]: 1.35 µM·h
- half-life [1, 10]: 4.1 h
- Cmax at 312 h [1, 11]: 1620 nM
- Tmax at 312 h [1, 11]: 1 h
- AUC(0-inf) at 312 h [1, 11]: 21.4 µM·h
- AUC(0-t) at 312 h [1, 11]: 20.7 µM·h
- half-life at 312 h [1, 11]: 4.8 h
- Cmax at 0 h [1, 12]: 1280 nM
- Tmax at 0 h [1, 12]: 8 h
- AUC(0-inf) [1, 12]: 19.9 µM·h
- AUC(0-t) [1, 12]: 19.4 µM·h
- half-life [1, 12]: 4 h
- Kel (2-8h) [1, 7]: -0.080 h⁻¹
- Kel (2-8h) [1, 8]: -0.236 h⁻¹
- Kel (4-24h) [1, 9]: -0.142 h⁻¹
- Kel (8-24h) [1, 10]: -0.167 h⁻¹
- Kel (4-24h) [1, 11]: -0.144 h⁻¹
- Kel (8-24h) [1, 12]: -0.174 h⁻¹
- adverse or irreversible effect ([2]; oral 2 mg/kg/day and 10 mg/kg/day during 14 days): did not induce any adverse or irreversible effect
- adverse signs ([2]; oral 50 mg/kg/day during 4 days, led to treatment withdrawal, reversible): induced some digestive and behavioral degradations
- MIV-701/MIV-06404 exposure ratio ([3]; 2 mg/kg): 5.0
- MIV-701/MIV-06404 exposure ratio ([3]; 10 mg/kg): 3.4
- MIV-701/MIV-06404 ratio ([3]; 2 mg/kg): 6.9
- MIV-701/MIV-06404 ratio ([3]; 10 mg/kg): 6.2
- MIV-701/MIV-06404 ratio ([3]; 50 mg/kg): 3.9
- MIV-701/MIV06404 ratio ([4]; 1 mg/kg): 7.0
- MIV-701/MIV06404 ratio ([4]; 10 mg/kg): 3.6
- MIV-701/MIV06404 ratio ([4]; 100 mg/kg): 3.3
- inhibition of plasma CTX-1 vs baseline ([5]; 10 mg/kg once a day, end of the 14 days treatment period): 60%
- time of CTX-1 inhibition peak after administration ([5]; D0, three doses tested): 4 h
- pre-dose plasma CTX-1 during repeated administration [5]: rapid drop
- pre-dose plasma CTX-1 during repeated administration ([5]; listed as MIV-701-besylate): sustained inhibition
- CTX-1 plasma concentration 24 hours after administration ([5]; single dose, all doses tested): did not go back to pre-dose concentration
- reduction of plasma CTX-1 ([5]; single oral administration (D0) at 2, 10 and 50 mg/kg): comparable reduction of plasma CTX-1
- tolerance ([6]; oral once daily for 14 days, 1, 10 and 100 mg/kg): well tolerated at all doses
- signs of toxicity ([6]; oral once daily for 14 days, regardless of the dose): No obvious signs of toxicity
